Target: T1, Recombinant human liver GK1 (GST-GK) (Homo sapiens, UniProt P35557)
T1 construct: made in house; host or cells: E. coli
T1 sequence (P35557 1-466 isoform P35557-2): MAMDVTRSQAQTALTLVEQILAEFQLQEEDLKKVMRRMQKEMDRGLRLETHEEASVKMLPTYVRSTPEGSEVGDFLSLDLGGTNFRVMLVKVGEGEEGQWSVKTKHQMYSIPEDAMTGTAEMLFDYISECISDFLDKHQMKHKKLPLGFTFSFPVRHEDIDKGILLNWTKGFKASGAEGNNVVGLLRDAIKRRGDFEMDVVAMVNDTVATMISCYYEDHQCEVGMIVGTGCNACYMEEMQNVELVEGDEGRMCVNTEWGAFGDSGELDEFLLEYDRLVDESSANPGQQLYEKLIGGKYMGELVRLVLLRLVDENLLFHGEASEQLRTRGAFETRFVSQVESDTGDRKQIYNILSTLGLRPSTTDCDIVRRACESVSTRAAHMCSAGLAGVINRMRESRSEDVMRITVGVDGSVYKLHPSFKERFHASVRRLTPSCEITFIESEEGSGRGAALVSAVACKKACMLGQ
Assay: In vitro glucokinase activity (G6PDH-coupled NADH generation assay)
Assay type: biochemical
Parameters: unit not given here
Conditions: concentration of activator that produced a 50% increase in the activity of GK; 5 mM D-glucose, 30° C., pH 7.1, 10% DMSO
Procedure: Glucokinase In Vitro Assay Protocol: Glucokinase (GK) was assayed by coupling the production of glucose-6-phosphate to the generation of NADH with glucose-6-phosphate dehydrogenase (G6PDH, 0.75-1 kunits/mg; Boehringer Mannheim, Indianapolis, Ind.) from Leuconostoc mesenteroides as the coupling enzyme:
Recombinant human liver GK1 was expressed in E. coli as a glutathione S-transferase fusion protein (GST-GK) [Liang et al, 1995]and was purified by chromatography over a glutathione-Sepharose 4B affinity column using the procedure provided by the manufacturer (Amersham Pharmacia Biotech, Piscataway, N.J.).
The assay was conducted at 30° C. in a flat bottom 96-well tissue culture plate from Costar (Cambridge, Mass.) with a final incubation volume of 120 μL. The incubation reaction contained the following: 25 mM Hepes buffer (pH 7.1), 25 mM KCl, 5 mM D-glucose, 1 mM ATP, 1.8 mM NAD, 2 mM MgCl2, 1 μM sorbitol-6-phosphate, 1 mM dithiothreitol, test drug or 10% DMSO, ˜7 units/ml G6PDH, and GK (see below). All organic reagents were >98% pure and were from Boehringer Mannheim with the exceptions of D-glucose and Hepes which were from Sigma Chemical Co, St Louis, Mo. Test compounds were dissolved in DMSO and were added to the incubation reaction minus GST-GK in a volume of 12 μL to yield a final DMSO concentration of 10%. This mix was pre-incubated in the temperature controlled chamber of a SPECTRAmax 250 microplate spectrophotometer (Molecular Devices Corporation, Sunnyvale, Calif.) for 10 minutes to allow temperature equilibrium and then the reaction was started by the addition of 20 μL GST-GK.
After addition of enzyme, the increase in optical density (OD) at 340 nm was monitored spectrophotometrically to determine the rate of change (OD340 per min). The GK activity (OD340/min) in control wells (10% DMSO minus GK activators) was compared with the activity in wells containing test GK activators, and the concentration of activator that produced a 50% increase in the activity of GK, i.e., the SC1.5:0.1, was calculated. The table below provides the in vitro glucokinase activity for the compounds in the Examples: […]

CC(C)C[C@@H](C(=O)Nc1nccs1)N1CC2=C(Oc3cccc(Cl)c3C2)C1=O [Example 5, (S)-2-(8-Chloro-3-oxo-3,9-dihydro-1H-chromeno[2,3-c]pyrrol-2-yl)-4-methyl-pentanoic acid thiazol-2-ylamide]
SC 1.5:0.1: 9.277

From patent publication US8178689B2, “Tricyclic compounds” (Hoffman-La Roche Inc., priority 2010, dated 2012)
